Data reported in ChEMBL document CHEMBL1177886, “Synthesis and biological evaluation of a novel series of 2,2-bisaminomethylated aurone analogues as anti-inflammatory and antimicrobial agents” (Eur J Med Chem, 2010).
Converted amounts (≈) assume the structure as drawn.

How the values were obtained:
Bacillus subtilis [1] = assay: Antibacterial activity against Bacillus subtilis NCIM 2546 after 24 hrs by disc diffusion method; type: functional; details: for MIC: Bacillus subtilis, NCIM 2546, 24 h
THP-1 [2] = assay: Antiinflammatory activity in human THP1 cells assessed as inhibition of LPS-induced TNFalpha production at 10 uM treated 30 mins before LPS challenge measured after 24 hrs by ELISA relative to control; type: functional
Candida albicans = assay: Antifungal activity against Candida albicans NCIM 3100 after 72 hrs by disc diffusion method; type: functional; details: for MIC: Candida albicans, NCIM 3100, 72 h
THP-1 [3] = assay: Antiinflammatory activity in human THP1 cells assessed as inhibition of LPS-induced IL-6 production at 10 uM treated 30 mins before LPS challenge measured after 24 hrs by ELISA relative to control; type: functional
Aspergillus fumigatus = assay: Antifungal activity against Aspergillus fumigatus NCIM 902 after 72 hrs by disc diffusion method; type: functional; details: for MIC: Aspergillus fumigatus, NCIM 902, 72 h
Aspergillus niger = assay: Antifungal activity against Aspergillus niger NCIM 545 after 72 hrs by disc diffusion method; type: functional; details: for MIC: Aspergillus niger, NCIM 545, 72 h
[4] = Cytotoxicity against human THP-1 cells at 10 uM; details: THP-1, 10 µM
Escherichia coli = assay: Antibacterial activity against Escherichia coli NCIM 2065 after 24 hrs by disc diffusion method; type: functional; details: for MIC: Escherichia coli, NCIM 2065, 24 h
Klebsiella pneumoniae = assay: Antibacterial activity against Klebsiella pneumoniae NCIM 5082 after 24 hrs by disc diffusion method; type: functional; details: for MIC: Klebsiella pneumoniae, NCIM 5082, 24 h
Proteus vulgaris = assay: Antibacterial activity against Proteus vulgaris NCIM 2813 after 24 hrs by disc diffusion method; type: functional; details: for MIC: Proteus vulgaris, NCIM 2813, 24 h
Staphylococcus aureus = assay: Antibacterial activity against Staphylococcus aureus NCIM 2120 after 24 hrs by disc diffusion method; type: functional; details: for MIC: Staphylococcus aureus, NCIM 2120, 24 h
Penicillium chrysogenum = assay: Antifungal activity against Penicillium chrysogenum NCIM 707 after 72 hrs by disc diffusion method; type: functional; details: for MIC: Penicillium chrysogenum, NCIM 707, 72 h
Trichoderma viride = assay: Antifungal activity against Trichoderma viride TT after 72 hrs by disc diffusion method; type: functional; details: for MIC: Trichoderma viride, TT, 72 h
THP-1 [5] = assay: Antiinflammatory activity in human THP1 cells assessed as inhibition of LPS-induced TNFalpha production at 1 uM treated 30 mins before LPS challenge measured after 24 hrs by ELISA relative to control; type: functional
THP-1 [6] = assay: Antiinflammatory activity in human THP1 cells assessed as inhibition of LPS-induced IL-6 production at 1 uM treated 30 mins before LPS challenge measured after 24 hrs by ELISA relative to control; type: functional
Bacillus subtilis [7] = assay: Antibacterial activity against Bacillus subtilis after 24 hrs by disc diffusion method

SMILES	inhibition zone (IZ) (Bacillus subtilis [1])	MIC (Bacillus subtilis [1])	inhibition at 10 µM (THP-1 [2])	MIC (Candida albicans)	inhibition zone (IZ) (Aspergillus fumigatus)	MIC (Aspergillus fumigatus)	inhibition zone (IZ) (Aspergillus niger)	MIC (Aspergillus niger)	MIC (Escherichia coli)	MIC (Klebsiella pneumoniae)	inhibition zone (IZ) (Proteus vulgaris)	MIC (Proteus vulgaris)	MIC (Staphylococcus aureus)	inhibition zone (IZ) (Penicillium chrysogenum)	MIC (Penicillium chrysogenum)	inhibition zone (IZ) (Candida albicans)	inhibition zone (IZ) (Trichoderma viride)	MIC (Trichoderma viride)	inhibition zone (IZ) (Klebsiella pneumoniae)	inhibition zone (IZ) (Staphylococcus aureus)	other results
COc1cc(OC)c2c(c1)OC(CN1CCN(C)CC1)(CN1CCN(C)CC1)C2=O	14 mm	50 µg/mL (≈ 119 µM)	76%	> 100 µg/mL	15 mm	50 µg/mL (≈ 119 µM)	14 mm	50 µg/mL (≈ 119 µM)	50 µg/mL (≈ 119 µM)	> 100 µg/mL	16 mm	25 µg/mL (≈ 59.7 µM)	> 100 µg/mL	14 mm	50 µg/mL (≈ 119 µM)	–	–	–	–	–	inhibition at 10 µM (THP-1 [3]): 97%; Activity [4]: 29%; inhibition zone (IZ) (Escherichia coli): 14 mm
CCN1CCN(CC2(CN3CCN(CC)CC3)Oc3cc(OC)cc(OC)c3C2=O)CC1	16 mm	50 µg/mL (≈ 112 µM)	–	50 µg/mL (≈ 112 µM)	14 mm	50 µg/mL (≈ 112 µM)	14 mm	50 µg/mL (≈ 112 µM)	50 µg/mL (≈ 112 µM)	25 µg/mL (≈ 56 µM)	14 mm	50 µg/mL (≈ 112 µM)	25 µg/mL (≈ 56 µM)	16 mm	25 µg/mL (≈ 56 µM)	13 mm	13 mm	50 µg/mL (≈ 112 µM)	17 mm	15 mm	inhibition zone (IZ) (Escherichia coli): 16 mm
OC(Cn1cncn1)(Cn1cncn1)c1ccc(F)cc1F [FLUCONAZOLE]	–	–	–	25 µg/mL (≈ 81.6 µM)	21 mm	25 µg/mL (≈ 81.6 µM)	24 mm	25 µg/mL (≈ 81.6 µM)	–	–	–	–	–	24 mm	25 µg/mL (≈ 81.6 µM)	24 mm	18 mm	25 µg/mL (≈ 81.6 µM)	–	–	–
COc1cc(OC)c2c(c1)OC(CN1CCCCC1)(CN1CCCCC1)C2=O	18 mm	25 µg/mL (≈ 64.3 µM)	35%	> 100 µg/mL	16 mm	50 µg/mL (≈ 129 µM)	17 mm	25 µg/mL (≈ 64.3 µM)	25 µg/mL (≈ 64.3 µM)	25 µg/mL (≈ 64.3 µM)	15 mm	50 µg/mL (≈ 129 µM)	25 µg/mL (≈ 64.3 µM)	18 mm	25 µg/mL (≈ 64.3 µM)	–	14 mm	50 µg/mL (≈ 129 µM)	18 mm	16 mm	inhibition at 10 µM (THP-1 [3]): 82%; Activity [4]: 21%
C[C@@H]1C[C@H]2[C@@H]3CCC4=CC(=O)C=C[C@]4(C)[C@@]3(F)[C@@H](O)C[C@]2(C)[C@@]1(O)C(=O)CO [DEXAMETHASONE]	–	–	–	–	–	–	–	–	–	–	–	–	–	–	–	–	–	–	–	–	inhibition at 1 µM (THP-1 [5]): 69%; inhibition at 1 µM (THP-1 [6]): 90%
COc1cc(OC)c2c(c1)OC(CN(C)C)(CN(C)C)C2=O	14 mm	50 µg/mL (≈ 162 µM)	–	25 µg/mL (≈ 81.1 µM)	18 mm	25 µg/mL (≈ 81.1 µM)	16 mm	50 µg/mL (≈ 162 µM)	50 µg/mL (≈ 162 µM)	50 µg/mL (≈ 162 µM)	15 mm	50 µg/mL (≈ 162 µM)	50 µg/mL (≈ 162 µM)	15 mm	50 µg/mL (≈ 162 µM)	16 mm	15 mm	25 µg/mL (≈ 81.1 µM)	15 mm	14 mm	inhibition zone (IZ) (Bacillus subtilis [7]): 15 mm
